Results: ChEMBL document CHEMBL1135772, “Conformationally constrained nicotines: polycyclic, bridged, and spiro-annulated analogues as novel ligands for the nicotinic acetylcholine receptor” (J Med Chem, 2002)

Target: Neuronal acetylcholine receptor; alpha4/beta2 (Rattus norvegicus, UniProt P09483+P12390)
Assay: Displacement of [3H]cytisine from Nicotinic acetylcholine receptor alpha4-beta2 in rat forebrain

Chain of Neuronal acetylcholine receptor; alpha4/beta2 (P09483 whole entry): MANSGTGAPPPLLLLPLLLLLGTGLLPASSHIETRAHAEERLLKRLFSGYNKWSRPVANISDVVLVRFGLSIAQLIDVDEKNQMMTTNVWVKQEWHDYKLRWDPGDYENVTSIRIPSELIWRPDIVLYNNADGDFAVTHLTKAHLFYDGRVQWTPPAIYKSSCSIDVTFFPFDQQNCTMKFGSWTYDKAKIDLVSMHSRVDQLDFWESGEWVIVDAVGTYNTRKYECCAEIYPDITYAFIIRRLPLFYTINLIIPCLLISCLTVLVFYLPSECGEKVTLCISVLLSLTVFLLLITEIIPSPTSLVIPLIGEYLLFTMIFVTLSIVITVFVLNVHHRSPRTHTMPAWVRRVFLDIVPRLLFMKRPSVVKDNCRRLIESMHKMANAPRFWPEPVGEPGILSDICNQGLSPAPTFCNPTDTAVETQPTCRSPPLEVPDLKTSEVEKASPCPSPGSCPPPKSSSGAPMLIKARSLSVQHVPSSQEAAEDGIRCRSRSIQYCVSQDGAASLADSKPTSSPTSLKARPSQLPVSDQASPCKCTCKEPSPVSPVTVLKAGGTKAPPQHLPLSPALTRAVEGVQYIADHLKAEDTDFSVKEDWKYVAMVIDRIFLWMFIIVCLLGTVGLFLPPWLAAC
Chain of Neuronal acetylcholine receptor; alpha4/beta2 (P12390 whole entry): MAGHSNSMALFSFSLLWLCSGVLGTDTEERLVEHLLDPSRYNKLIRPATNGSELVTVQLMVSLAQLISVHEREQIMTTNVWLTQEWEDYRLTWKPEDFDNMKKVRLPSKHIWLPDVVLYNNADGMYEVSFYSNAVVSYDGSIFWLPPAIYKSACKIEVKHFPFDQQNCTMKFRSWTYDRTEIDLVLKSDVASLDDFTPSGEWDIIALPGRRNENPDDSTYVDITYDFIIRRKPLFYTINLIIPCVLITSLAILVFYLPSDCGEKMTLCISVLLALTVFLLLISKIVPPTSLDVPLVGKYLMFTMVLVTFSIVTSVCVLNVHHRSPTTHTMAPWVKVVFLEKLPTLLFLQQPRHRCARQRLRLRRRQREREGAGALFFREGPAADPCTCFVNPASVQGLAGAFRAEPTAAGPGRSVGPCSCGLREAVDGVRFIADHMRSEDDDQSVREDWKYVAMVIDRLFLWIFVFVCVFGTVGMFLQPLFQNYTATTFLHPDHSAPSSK

First: c1cc2c(cn1)[C@@]1(CCCN1)CC2
Second: c1cc2c(cn1)[C@]1(CCCN1)CC2
The Ki of the first is 10-fold lower: 53.1 nM for the first, 533 nM for the second. The first binds more tightly here.

`c1cc2c(cn1)C1N3CCCC1(CC3)C2` (stereo in doubt; (-)4b) and `c1cc2c(cn1)[C@H]1N3CCC1(CC3)C2` are within 1.5-fold of each other in Ki: 1040 nM for the first, 962 nM for the second.

First: c1cc2c(cn1)C1N3CCCC1(CC3)C2 (stereo in doubt; (+)4b)
Second: CN1CCC[C@@]12CCc1ccncc12
The Ki of the first is 2.1-fold higher: 318 nM for the first, 148 nM for the second. The second binds more tightly here.

Compared with `CN1CCC[C@]12CCc1ccncc12`, `c1cncc(C2C3CCN2CC3)c1` (single isomer, unassigned; (-)) is 2.5-fold lower in Ki: 4.79 nM for the first, 1.89 nM for the second. The second binds more tightly here.

Compound `c1cncc(C2C3CCN2CC3)c1` (stereo in doubt; 3 (+)) has a Ki of 2.32 nM.
